Measured values reported in patent US11629174B2, “Cryptic metabolites and method for activating silent biosynthetic gene clusters in actinomycete bacteria” (The Trustees of Princeton University, priority 2017, dated 2023).

Experiments:
Gene cluster 3648 = experiment: HiTES in S. avermitilis, gene cluster 3648; assay type: cell-based; conditions: FIGS. 16 and 17
SAV3643 and SAV3665 = experiment: RT-qPCR of SAV3643 and SAV3665 in cluster 3648; assay type: cell-based, S. avermitilis; conditions: 5 ug/mL, relative to untreated samples
S. avermitilis = experiment: Growth inhibition of S. avermitilis by elicitor; assay type: cell-based; conditions: dose-response series in 2.5 ug/mL steps
Gene cluster 2631 = experiment: HiTES in S. erythraea, gene cluster 2631; assay type: cell-based; conditions: FIG. 10
Gene cluster 2875 = experiment: HiTES in S. erythraea, gene cluster 2875; assay type: cell-based; conditions: FIG. 11
Gene cluster 4143 = experiment: HiTES in S. erythraea, gene cluster 4143; assay type: cell-based; conditions: FIG. 12
Gene cluster 4286 = experiment: HiTES in S. erythraea, gene cluster 4286; assay type: cell-based; conditions: FIG. 13
Gene cluster 4477 = experiment: HiTES in S. erythraea, gene cluster 4477; assay type: cell-based; conditions: FIG. 14
sur cluster = experiment: High-throughput elicitor screen (HiTES), eGFPx3 reporter strains of the sur cluster; assay type: cell-based, Streptomyces albus J1074; conditions: attB::Psur-eGFPx3 and surE::eGFPx3, ~33 μM, 60 h, hit threshold 2.5-fold eGFP fluorescence
Protocol: These next four steps are seen be referring to the previously described example. In the previously described example, HiTES was carried out using the two constructs seen in FIGS. 2B and 2C with a ˜500-member natural products library. Each S. albus construct was grown in a 96-well format, supplemented with the compound library, and the effect of each compound on the silent BGC determined using eGFP-derived fluorescence. Interference from naturally fluorescent compounds in the library was eliminated by subtracting the […], immediately after addition of the library members.
Referring to FIGS. 3A and 3B, results for both genetic constructs are shown. These graphs show relative expression of a neutral site reporter, attB::Psur-eGFPx3 (FIG. 3A) or targeted sur reporter, surE::eGFPx3 (FIG. 3B) as a function of exogenously-supplied small molecules. Each bar represents the level of expression of sur in the presence of a single candidate elicitor. Plus signs denote the positive control, attB::PermE-eGFPx3. Minus signs denote the negative controls, attB::Psur-eGFPx3 (3A) or surE::eGFPx3 (3B) in the absence of any metabolites. The expression has been normalized to the positive control.
In this example, the threshold amount was a 2.5 fold induction of eGFP-derived fluorescence emission. Thus, hits were considered those that gave at least a 2.5-fold induction of eGFP-derived fluorescence emission. However, in other embodiments, hits may be those giving at least a 2 fold induction, more preferably at least a 3 fold induction, and more preferably at least a 4 fold induction.
Seed cultures for the reporter strains sur::eGFPx3, attB::Psur-eGFPx3, negative control wild-type, and positive control attB::PermE-eGFPx3 inoculated by transferring fresh spores (˜10^7) into 20 mL of YEME medium (per L: 3% (w/v) yeast extract, 5% peptone, 3% malt extract, 1% glucose and 10.7% sucrose, and 5 mM MgCl2.6H2O) in a 125 mL Erlenmeyer flask equipped with stain-less steel springs. The cultures were grown at 30° C. and 250 rpm for 3 days. Mycelia from each of the four cultures were collected by centrifugation (10 min, 3000 g, RT) and diluted into 150 mL of R4 medium to give a final concentration of 0.05% (w/v). R4 medium consisted of (per L) 0.5% (w/v) glucose, 0.1% yeast extract, 0.5% MgCl2.6H2O, 0.2% CaCl2.2H2O, 0.15% proline, 0.118% valine, 0.28% TES, 50 mg/L casamino acid, 100 mg/L K2SO4, and 1× trace element solution, which contains 40 mg/L ZnCl2, 200 mg/L FeCl3.6H2O, 10 mg/L CuCl2.2H2O, 10 mg/L MnCl2.4H2O, 10 mg/L Na2B4O7.10H2O, and 10 mg/L (NH4)6Mo7O24.4H2O).
Subsequently, the two reporter strains (sur::eGFPx3 and attB::Psur-eGFPx3) were each dispensed into 5× sterile, clear-bottom 96-well plates (150 μL per well) using a MultiFlo Microplate Dispenser (BioTek). A separate sterile 96-well separate plate was prepared for positive and negative controls; it contained the negative control (wt S. albus J1074) in columns 1-3, sur::eGFPx3 in columns 4-6, attB::Psur-eGFPx3 in columns 7-9, and the positive control attB::PermE-eGFPx3 in columns 10-12 of the plate. No elicitors were added to the control plates. […] Upon additional of the compound library, t=0 fluorescence reads were recorded on a Synergy H1MF plate reader (BioTek) using Aex=485 nm and Aem=505-650 nm in 5 nm steps. […]

surA and surC = experiment: RT-qPCR of surA and surC transcripts in wt S. albus; assay type: cell-based, Streptomyces albus J1074
Protocol: In the example above, the effects of these putative elicitors on the sur cluster were validated by performing a RT-qPCR with wt S. albus. Upon exposure of S. albus to each elicitor or DMSO (control), total RNA was be isolated, converted to cDNA and the surA and surC transcripts quantified by qPCR. […] To further verify the effect of 1 and 2, a dose-response assay was carried out. With both elicitors, a concentration-dependent induction of sur was observed, yielding optimal upregulation at a final concentration of ˜23 μM (etoposide) and −30 μM (ivermectin) (FIG. 4B). These concentrations induced a ˜10-fold (etoposide) and 4.5-fold (ivermectin) upregulation of surC.
All operations involving RNA utilized a dedicated RNase-free work area. To commence the experiment, seed cultures of wt S. albus J1074 were prepared by inoculating 3 ml of TSBY medium (3% (w/v) tryptic soy broth and 0.5% yeast extract) in a sterile 14 ml bacterial culture tube with freshly-prepared spores (˜10^7). The culture was incubated at 30° C. and 250 rpm in an Ecotron Shaker (ATR). After 48 hours cultivation, the cells were collected by centrifugation and subsequently diluted to a final concentration of 0.05% (w/v) in 250 ml Erlenmeyer flask containing 50 ml of R4 medium. Desired elicitors were added to final concentrations indicated in the figures (typically 1-100 μM), and the cultures were incubated at 30° C. and 250 rpm. After 48 h, 1 ml was removed from each sample and transferred to a 1.5 ml RNase-free Eppendorf tube (Ambion). Each sample was centrifuged (16,000 g, 3 min) to collect the cells, the supernatant discarded, the cells flash-frozen in liquid N2, and stored at −80° C.
RNA isolation was carried out using the Qiagen RNeasy kit following the manufacturer's instructions without modifications. Upon isolation, contaminating DNA was removed using the DNA-free kit (Ambion) according to manufacturer's instructions. Gel electrophoreses subsequently confirmed RNA integrity (FIG. S2). Finally, total RNA was converted into cDNA via the PrimeScript™ RT reagent Kit (Takara) using random hexamers as primers and 500 ng of each RNA sample as template.
Three genes (surA, surC and surR) were chosen for quantification by RT-qPCR. The primers were designed using primer-3-plus software available online. The primers were carefully chosen to give an amplicon length of 130-160 bp and a melting temperature of 60° C., though this was later optimized (see below and Table 2). The primers were chosen to vary in length between 18-22 bp, and, if possible, to contain a single G/C clamp at the 3′ end. To ensure optimal qPCR parameters, the genomic DNA of S. albus J1074 was isolated using the Wizard genomic DNA purification kit (Promega), and each amplicon was subsequently amplified using standard PCR conditions with a high-fidelity, proof-reading Q5 DNA polymerase (NEB). The PCR reactions were then separated on a 1.2% agarose gel, the amplicon excised, and gel-extracted with the Gel Extraction kit (Qiagen). The extracted DNA was used to optimize qPCR conditions. Using the amplicon template, the primer concentrations were first varied followed by the annealing/extension temperatures, which ranged from 58-68° C. in eight steps. The combination that gave the lowest quantification cycle (Cq) was used in the experiments (Table 2). The Cq was obtained with an automatic baseline determined by the CFX Manager Software (Bio-Rad). As positive controls, these standards were included in every plate that contained the experimental samples, along with no-DNA controls, in duplicates.
qPCR analysis was performed on a CFX96 Real-Time PCR Detection System (Bio-Rad) consisting of a C1000 Thermal Cycler and a CFX96 Real-Time System. The reaction was carried out in hard-shell, clear 96-well qPCR plates (Bio-Rad) and utilized the iTaq Universal SYBR Green Supermix (Bio-Rad). […]

S. albus = experiment: Anti-bacterial effect of elicitor on the producing strain; assay type: cell-based, Streptomyces albus J1074; conditions: at high concentrations

For CN[C@@H]1[C@H](O)[C@H](NC)[C@H]2O[C@@]3(O)C(=O)C[C@@H](C)O[C@H]3O[C@@H]2[C@H]1O [Spectinomycin], the “elicitor of gene cluster 3648 (ranking)” value (Gene cluster 3648) was “top four elicitors”, the “upregulation of SAV3643 and SAV3665” value (SAV3643 and SAV3665) was 40-50 fold and the “concentration that inhibited growth” value (S. avermitilis) was “greater than 7.5 ug/mL”.

In the case of CC1(C)CCC2=C(O1)c1ccccc1C(=O)C2=O [beta-Lapachone], the “elicitor of gene cluster 2631 (ranking)” value (Gene cluster 2631) is reported as “top three elicitors”, the “elicitor of gene cluster 2875 (ranking)” value (Gene cluster 2875) is reported as “top two elicitors” and the “elicitor of gene cluster 4143 (ranking)” value (Gene cluster 4143) is reported as “top three elicitors”. The “elicitor of gene cluster 4286 (ranking)” value (Gene cluster 4286) was “top three elicitors” and the “elicitor of gene cluster 4477 (ranking)” value (Gene cluster 4477) was “top three elicitors”.

With COc1cc([C@@H]2c3cc4c(cc3[C@@H](O[C@@H]3O[C@@H]5CO[C@@H](C)O[C@H]5[C@H](O)[C@H]3O)[C@H]3COC(=O)[C@H]23)OCO4)cc(OC)c1O [etoposide] the “induction of the sur cluster in both reporter strains (hit ranking)” value (sur cluster) was “best hits”, the “upregulation of surC” value (surA and surC; at the optimal elicitor concentration, vs DMSO) was ~10 fold and the “final concentration yielding optimal upregulation of sur” value (surA and surC; dose-response, RT-qPCR) was ~23 µM. The “induction of surA and surC” value (surA and surC; mRNA vs DMSO control, wt S. albus) was 3 fold and the “anti-bacterial effect on S. albus” value (S. albus) was “had anti-bacterial effects on S. albus”.
